Reference: patent US20200297862A1, “METHODS OF USING BISPECIFIC ANTIGEN-BINDING CONSTRUCTS TARGETING HER2” (Zymeworks Inc., priority 2016, published 2020)
Like-named read-outs stand apart in the source and are kept apart here.

Key:
FaDu xenograft = format: in vivo; settings: for median survival: study duration 59 days
Procedure: FaDu cells are derived from squamous cell cancer of the head and neck that is HER2 low, non-HER2 gene amplified, HER3+, EGFR+ and highly sensitive to Cisplatin at the MTD.
Tumor cell suspensions were implanted subcutaneously into athymic nude mice. […] Cisplatin was purchased and provided for the study by Charles River Laboratories (Morrisville, N.C.). Animals were treated according to Regimen 1 at Day 1, followed by Regimen 2 on subsequent days as noted in Table A4.

HBCx-5 xenograft = assay: Trastuzumab resistant breast cancer PDX, ADC (Example 20); format: in vivo, athymic nude mice; settings: Day 43
Procedure: Dosing for each group was as follows:
A) IgG control was dosed intravenously with a loading dose of 15 mg/kg on study day 1 and maintenance doses of 10 mg/kg administered on study days 4, 8, 11, 15, 18, 22, and 25
Tumor volume was measured throughout the course of the study, and the mean tumor volume, T/C ratio, number of responders, complete response, and zero residual disease parameters were assessed at day 43.

recombinant human HER2 = recombinant human HER2 (Homo sapiens, UniProt P04626); assay: SPR binding of captured antibody to HER2 at varying antibody capture levels
From the text: An SPR assay was used to evaluate the mechanism by which an exemplary anti-HER2 biparatopic antibody binds to HER2 ECD; specifically, to understand whether both paratopes of one biparatopic antibody molecule can bind to one HER2 ECD (Cis binding; 1:1 antibody to HER2 molecules) or if each paratope of one biparatopic antibody can bind two different HER2 ECDs (Trans binding; 1:2 antibody to HER2 molecules). […] The correlation between a reduced (slower) off-rate with increasing antibody capture levels (surface density) is an indication of Trans binding (i.e. one antibody molecule binding to two HER2 molecules.
Between 2000 and 4000 RU of anti-human Fc injected at concentration between 5 and 10 μg/ml was immobilized on a CMS chip using standard amine coupling. […] HER2 dilutions were analyzed in duplicate. Sensograms were fit globally to a 1: 1 Langmuir binding model. All experiments were conducted at 25° C.
The following experiment was conducted to compare HER2 binding kinetics (kd, off-rate) of exemplary anti-HER2 ECD2×ECD4 biparatopic antibodies when captured at varying surface densities by SPR.

JIMT-1 cells = assay: Cellular staining and location by confocal microscopy at 1, 3 and 16 h; format: cell-based, human; settings: 200 nM antibody, 1 h, 3 h
Procedure: Cells were gently washed two times with warmed sterile PBS (500 ml/well). Cells were fixed with 250 ml of 10% formalin/PBS solution for 10 min at RT. The fixed cells were washed three times with PBS (500 μl/well), permeabilized with 250 μl/well of PBS containing 0.2% Triton X-100 for 5 min, and washed three times with 500 μl/well PBS. Cells were blocked with 500 μl/well of PBS+5% goat serum for 1 h at RT. […] Cells were washed three times with 500 μl/well of PBS and the coverslips containing fixed cells were then mounted on a slide using Prolong gold anti-fade with DAPI (Life Technologies; # P36931). 60× single images were acquired using Olympus FV1000 Confocal microscope.

Thermal stability by DSC = format: physicochemical
Procedure: DSC was performed in the MicroCal™ VP-Capillary DSC (GE Healthcare) using a purified protein sample (anti-HER2 biparatopic antibodies and anti-HER2 biparatopic-ADCs) adjusted to about 0.3 mg/ml in PBS. The sample was scanned from 20 to 100° C. at a 60° C./hr rate, with low feedback, 8 sec filter, 5 min preTstat, and 70 psi nitrogen pressure. The resulting thermogram was analyzed using Origin 7 software.
The DSC was measured before and after SEC purification.

[1] = Kaplan-Meier survival, log-rank test

Q: With `N.N.[Cl][Pt][Cl]` [cisplatin] as the molecule, how does the “RECIST Scores CR(TV < 20 mm^3)” value (FaDu xenograft; Day 25, animals/group) read?
A: The value was 0/15.

Q: And the “RECIST Scores PD(>20% baseline growth)” value (FaDu xenograft; Day 25, animals/group)?
A: The value was 15/15.

Q: And the “RECIST Scores PR(>30% baseline regression)” value (FaDu xenograft; Day 25, animals/group)?
A: The value was 0/15.

Q: What about the “RECIST Scores SD(neither PD or PR)” value (FaDu xenograft; Day 25, animals/group) of the same molecule?
A: The value was 0/15.

Q: And the “Mean TV % Δ from base line” value (FaDu xenograft; Day 25, regimens of Table A4)?
A: Its value is “(782%)”.

Q: And the “Treatment/Control Ratio” value (FaDu xenograft; Day 25, regimens of Table A4)?
A: The value was 0.54.

Q: And the “Mean TV” value (FaDu xenograft; Day 25, regimens of Table A4 (antibodies 15 then 10 mg/kg iv; cisplatin 2 mg/kg ip))?
A: The value was 1070 mm^3.

Q: And the “Log Rank Summary (survival) vs 6336” value (FaDu xenograft; [1])?
A: Its value is “n/s”.

Q: What about the “Log Rank Summary (survival) vs 6908” value (FaDu xenograft; [1]) of the same molecule?
A: Its value is “★★★ (★★★ = P < 0.001)”.

Q: And the “Log Rank Summary (survival) vs 10000” value (FaDu xenograft; [1])?
A: Its value is “★ (★ = P < 0.05)”.

Q: What about the “Median Time to Progression” value (FaDu xenograft; regimens of Table A4) of the same molecule?
A: The value was 8.4 days.

Q: And the median survival (FaDu xenograft)?
A: Its median survival is 40 days.

Q: What about the “median survival” value (FaDu xenograft; euthanized when tumor volume exceeded 2000 mm^3) of the same molecule?
A: The value was 40 days.

Q: What does the source list for T-DM1?
A: Complete response (>10% baseline regression) (HBCx-5 xenograft): 1/7; Mean TV % change from Baseline (HBCx-5 xenograft): +65%; Mean TV (mm3) (HBCx-5 xenograft): 193 mm3; Responders (TV < 50% of control) (HBCx-5 xenograft): 6/7; T/C (IgG) ratio (HBCx-5 xenograft): 0.21; Zero residual disease (TV < 20 mm3) (HBCx-5 xenograft): 0/7

Q: Which “kd (1/s) over a range of antibody capture levels” value (recombinant human HER2) does the source give for “v4182: monovalent anti-HER2 antibody, pertuzumab Fab on chain A; the OA of Table 11D” here?
A: The value was “no change in kd values”.

Q: With “v4184: bivalent anti-HER2 antibody, pertuzumab Fabs, heterodimeric Fc, pertuzumab analog” as the molecule, how does the “cellular staining and location” value (JIMT-1 cells) read?
A: Its value is “pronounced plasma membrane staining at the 1, 3 and 16 h time points”.

Q: Which “DSC post-SEC ΔTm wrt WT (C)” value (Thermal stability by DSC; after SEC purification, WT = v10013) does the source give for “v9996: monovalent anti-HER2 antibody, pertuzumab Fab with Y96A in VL and T30A/A49G/L69F in VH” here?
A: Its value is −0.7 C.

Q: And the “DSC pre-SEC ΔTm wrt WT (C)” value (Thermal stability by DSC; before SEC purification, WT = v10013)?
A: Its value is −0.2 C.

Q: And the “DSC post-SEC Tm (C)” value (Thermal stability by DSC; one-armed antibody, after SEC purification)?
A: The value was 77.2 C.

Q: And the “DSC pre-SEC Tm (C)” value (Thermal stability by DSC; one-armed antibody, before SEC purification)?
A: Its value is 77.2 C.
